According to patent US8350064B2, “Fluorescent xanthenes and white light fluorophores” (Board of Supervisors of Louisiana State University And …, priority 2006, dated 2013):
Values joined by “and” are separate entries in the source; they are usually repeats but may differ in a detail not shown here. Identical values can stand only once. “Also recorded” adds a separate entry of the source. Values belong to the compound of their own block, whether it stands above or below them.

Experiments:
[1] = tested on: HEp2 cells; assay: Cytotoxicity, CellTiter Blue Cell Viability assay; assay type: cell-based; details: 24 hours, up to 100 μM (FIG. 10), dilutions 10 μM to 1.25 μM
Protocol: Compound toxicity was tested by plating 7500 HEp2 cells per well on a Costar 96-well plate. Cells were allowed to grow for 48 hours and were then fed medium containing twofold dilutions of SNAFR-6 ranging from 10 μM to 1.25 μM. Also, 0.1% Saponin (Sigma) was used as a […] control. Cells were then incubated for 24 hours. Viability was measured using the CellTiter Blue Cell Viability assay (Promega) as per manufacturer's instructions. The fluorescence signal was detected using an excitation wavelength of 520 nm and emission wavelength of 584 nm. Viability was normalized against a scale in which untreated cells were rated 100%, and cells treated with 0.1% saponin were rated 0%. At the concentrations tested, the cytotoxicity of SNAFR-6 was low.

[2] = tested on: HEp2 cells; assay: Cellular imaging of live cells (uptake and localization); assay type: cell-based; details: fluorescence imaging
Source text: There was a strong signal from the endoplasmic reticulum, and a smaller signal from mitochondria. […] No obvious staining of the plasma membrane was seen. However, since the plasma membrane has a large surface area, a relatively low surface signal might not have been detected. Three different filter sets, DAPI, FITC, and Texas Red, were used to select for wavelengths corresponding to the blue, green, and red emissions of SNAFR-2, respectively. […] However, autofluorescence was minimal with the longer wavelength filter sets, FITC and Texas Red.

[3] = pKa of SNAFR-6 by absorption and fluorescence titration; aggregation in buffered media; assay type: physicochemical
Source text: Both the neutral and anionic forms could be excited simultaneously at wavelengths from ˜420 nm to ˜530 nm, a range that includes both the 488 and 514 nm argon ion laser spectral lines. The neutral emission could be selectively measured by using, for example, an FITC filter set. Also, the anionic form can be selectively excited using a longer excitation wavelength, ˜540 nm to ˜650 nm. Anionic emission can be selectively measured, using, for example, common Texas Red filter sets. SNAFR-6 is thus a versatile fluorophore for ratiometric measurements.

[4] = Fluorescence properties of SNAFR-6 (Stokes shift, quantum yield); assay type: physicochemical
Source text: The neutral form of SNAFR-6 could be excited from ˜420 nm to ˜530 nm. Its emission was centered at 571 nm. The anionic form could be efficiently excited over a broad range from ˜420 nm to ˜650 nm, with an excitation maximum at 536 nm. The anionic emission ranged from ˜575 nm to ˜850 nm, centered at 733 nm. SNAFR-6 thus has a very large Stokes shift, 197 nm.
FIG. 7 depicts an overlay of the normalized absorption spectrum of SNAFR-6 in 0.1 M NaOH solution, and the NIR emission from its anionic form in phosphate buffer (50 mM, pH 9.3):DMSO 99:1 v/v. The anionic emission at 733 nm was readily excited throughout a ˜200 nm window, a range that includes the common argon ion laser wavelengths of 488 nm and 514 nm. The absorption maximum is located at 536 nm.
The quantum yield of the anionic (NIR) emission of SNAFR-6 in DMSO was 0.09, measured by reference to rhodamine 6G in EtOH. This is a relatively high value for an NIR dye emitting at a wavelength longer than ˜730 nm.

[5] = pKa of SNAFR-2 from absorption and emission spectra as a function of pH; assay type: physicochemical; details: 50 mM phosphate buffer with 0.25% DMSO
Protocol: SNAFR-2 was dissolved in 50 mM phosphate buffer with 0.25% DMSO. As the pH increased, the absorption band centered at 550 nm increased. We attributed this band to the anionic form (A). Concurrently, the absorption band at ca. 460 nm decreased. We attributed the 460 nm band to the neutral form (N). Four isosbestic points were observed, at 484, 394, 327, and 304 nm. The 484 nm isosbestic point is near the 488 nm Ar ion laser line. Thus ratiometric measurements using SNAFR-2 as a probe may be conducted with an Ar ion laser and common, commercially available filter sets.
FIGS. 1A through 1H depict the spectral properties of 30 μM SNAFR-2 in 50 mM phosphate buffer with 0.25% DMSO at various pH values. The arrows indicate the spectral changes as the pH increased in order: 7, 8, 8.5, 9 and 10. A=anionic form. N=neutral form. FIG. 1A depicts Absorption spectra. The * indicates the positions of isosbestic points. FIGS. 1B-D depict excitation spectra, with emission monitored at 400 nm, 540 nm, and 620 nm respectively. FIGS. 1E-H depict emission spectra with excitations at 325 nm, 488 nm, 514 nm, and 543 nm respectively, wavelengths that correspond to common laser lines. All fluorescence spectra were normalized versus the maximum for each data set.
(§1) Most prior organic fluorophores have been limited by a narrow excitation range, which has hindered their use in multiplexing systems with other fluorophores. By contrast, the absorption and excitation spectra of SNAFR-2 allow it to be excited from 260 nm to 600, a range that includes various common laser lines, for example, HeCd at 325 nm, Ar ion at 488 and 514 nm, and HeNe at 543 nm (FIGS. 1A-D). SNAFR-2 is compatible with commercially available filter sets, such as those used in various spectroscopic instruments and fluorescence microscopes. […] The pK*a was calculated as 4.54 or 4.73 at room temperature, determined as pKa-em and pKa-abs, respectively.

[6] = Excited-state pK*a of SNAFR-2 estimated using the Forster equation; assay type: physicochemical
Source text: as §1

[7] = Spectral properties of SNAFR-2 in DMSO and MeOH; assay type: physicochemical; details: for Φ (quantum yield relative to rhodamine 6G in EtOH, Φ = 1): excitation 514 nm
Source text: The violet-blue emission increased in these organic solvents as compared to buffer. The green emission was attributed to the neutral form. As expected, the emission corresponding to the anionic form decreased in both solvents.

[8] = Photobleaching decay of SNAFR-2 in MeOH and fluorescein in 0.1 M NaOH; assay type: physicochemical; details: SNAFR-2 in MeOH; excitation 488 nm; at least 1800 s; compared with fluorescein in 0.1 M NaOH
Source text: We investigated the photostability of SNAFR-2 in MeOH. […] In MeOH, SNAFR-2 can be excited efficiently at 488 nm, which corresponds to an Ar ion laser line. This wavelength also matches well with the absorbance maximum (λabs=493 nm) of fluorescein in aqueous base. We conducted photostability studies in SNAFR-2 and fluorescein solutions, with the concentration of each selected to have an absorbance of 0.03 at 488 nm. The excitation band-pass was opened to 14 nm, the maximum allowed by the instrument we used. The fluorescence signal was collected using both the S- and T-channels of the instrument. S-channel data were collected through a dual monochromator set to the emission maximum of the particular fluorophore. T-channel data were collected through a 550 nm, long-pass filter. High voltage for the photomultiplier tube (PMT) was set to 950 and 500 V for the S and T channels, respectively. […] Fluorescence intensity was monitored at the emission maximum through a dual monochromator following excitation at 543 nm. […] FIGS. 9A and 9B depict the photobleaching decay of SNAFR-2 in MeOH, and of fluorescein in 0.1 M NaOH, monitored at the emission maximum of each compound (FIG. 9A), or through a 550 nm long-pass filter (FIG. 9B). The fluorescence intensity was normalized for each compound as compared to the intensity at time t=0.

[9] = method 0-0 excitation, room temperature

entry into cells [2]: readily enters cells
pKa ([3]; absorption titration): 8.18 ± 0.03
pKa ([3]; fluorescence titration): 8.1 ± 0.03
quantum yield of the anionic (NIR) emission ([4]; DMSO, by reference to rhodamine 6G in EtOH): 0.09
Stokes shift ([4]; anionic form, excitation maximum 536 nm, emission 733 nm, aqueous solution): 197 nm and ~200 nm
SMILES: O=c1ccc2c(-c3ccccc3)c3cc4ccc(O)cc4cc3oc-2c1 [SNAFR-6]
cytotoxicity (cell viability) [1]: low and low cytotoxicity
aggregation ([3]; buffered media): Significant aggregation in buffered media was not seen

pKa ([5]; Abs, λisobestic 304, λ1/λ2 265/304, 50 mM phosphate buffer, read-out: pKa): 8.48
pKa ([5]; Abs, λisobestic 304, λ1/λ2 296/304, 50 mM phosphate buffer, read-out: pKa): 8.54
pKa ([5]; Abs, λisobestic 304, λ1/λ2 312/304, 50 mM phosphate buffer, read-out: pKa): 8.48
pKa ([5]; Abs, λisobestic 327, λ1/λ2 312/327, 50 mM phosphate buffer, read-out: pKa): 8.54
pKa ([5]; Abs, λisobestic 327, λ1/λ2 344/327, 50 mM phosphate buffer, read-out: pKa): 8.51
pKa ([5]; Abs, λisobestic 327, λ1/λ2 380/327, 50 mM phosphate buffer, read-out: pKa): 8.51
pKa ([5]; Abs, λisobestic 394, λ1/λ2 344/394, 50 mM phosphate buffer, read-out: pKa): 8.58
pKa ([5]; Abs, λisobestic 394, λ1/λ2 380/394, 50 mM phosphate buffer, read-out: pKa): 8.68
pKa ([5]; Abs, λisobestic 484, λ1/λ2 469/484, 50 mM phosphate buffer, read-out: pKa): 8.47
pKa ([5]; Abs, λisobestic 484, λ1/λ2 511/484, 50 mM phosphate buffer, read-out: pKa): 8.54
pKa ([5]; Abs, λisobestic 484, λ1/λ2 543/484, 50 mM phosphate buffer, read-out: pKa): 8.52
pKa ([5]; Em, λex 325, λ1/λ2 541/597, 50 mM phosphate buffer, read-out: pKa): 8.32
pKa ([5]; Em, λex 325, λ1/λ2 575/597, 50 mM phosphate buffer, read-out: pKa): 8.32
pKa ([5]; Em, λex 325, λ1/λ2 627/597, 50 mM phosphate buffer, read-out: pKa): 8.38
pKa ([5]; Em, λex 488, λ1/λ2 542/600, 50 mM phosphate buffer, read-out: pKa): 8.33
pKa ([5]; Em, λex 488, λ1/λ2 575/600, 50 mM phosphate buffer, read-out: pKa): 8.36
pKa ([5]; Em, λex 488, λ1/λ2 630/600, 50 mM phosphate buffer, read-out: pKa): 8.35
pKa ([5]; Em, λex 514, λ1/λ2 539/595, 50 mM phosphate buffer, read-out: pKa): 8.31
pKa ([5]; Em, λex 514, λ1/λ2 575/595, 50 mM phosphate buffer, read-out: pKa): 8.32
pKa ([5]; Em, λex 514, λ1/λ2 623/595, 50 mM phosphate buffer, read-out: pKa): 8.34
pKa ([5]; absorption spectra, phosphate buffer with 0.25% DMSO, read-out: average pKa-abs): 8.53 ± 0.06
pKa ([5]; different excitation wavelengths, phosphate buffer with 0.25% DMSO, read-out: pKa values inferred from emission spectra): 8.31 to 8.38
pKa ([5]; different isosbestic points, phosphate buffer with 0.25% DMSO, read-out: pKa values calculated from absorption spectra): 8.47 to 8.68
pKa ([5]; emission spectra, phosphate buffer with 0.25% DMSO, read-out: average pKa-em): 8.34 ± 0.02
pK*a value ([6]; across different methods to calculate the excitation frequency): 3.3 to 6.3
pKa-abs* ([6]; method 0-0 absorption): 5.30
pKa-em* ([6]; method 0-0 absorption): 5.11
pKa-abs* [6, 9]: 4.73
pKa-em* [6, 9]: 4.54
pKa-abs* ([6]; method Absorption): 6.34
pKa-em* ([6]; method Absorption): 6.15
pKa-abs* ([6]; method Emission): 3.54
pKa-em* ([6]; method Emission): 3.34
pKa-abs* ([6]; method Excitation): 6.25
pKa-em* ([6]; method Excitation): 6.05
λem (peak locations in the emission spectra) ([7]; DMSO): 560 nm
Φ (quantum yield relative to rhodamine 6G in EtOH, Φ = 1) ([7]; DMSO): 0.33
λem (peak locations in the emission spectra) ([7]; MeOH): 550 nm
Φ (quantum yield relative to rhodamine 6G in EtOH, Φ = 1) ([7]; MeOH): 0.41
entry into cells [2]: readily entered HEp2 cells
SMILES: O=c1ccc2c(-c3ccccc3)c3ccc4cc(O)ccc4c3oc-2c1 [SNAFR-2]
photostability (photobleaching decay) [8]: far more photostable than fluorescein; also recorded: excellent photostability; also recorded: considerably higher photostability
